The values that follow come from patent publication US20040266862A1, “Method of improving animal tissue quality by supplementing the animal diet with mixed tocotrienols” (priority 2003, published 2004).

Marks after values point to notes of the source that are not given here.

The conditions of assay [1]: in vitro; compared with ATA; Kamat et al. 1997; cited from earlier work.
The test system of assay [2] is swine. The note with it: administered to swine; Berg, NPPC Project No. 99-164; cited from earlier work.
The test system of assay [3] is swine. Briefly: 2000-2001 swine feed test: raw pork loin color (Minolta L*). In kind it is in vivo. An excerpt: (§1) Applicants assessed the effects of antioxidant supplementation on meat quality in an experiment in which pork from pigs fed one of four dietary treatments was compared across three genetic lines differing in carcass leanness and intramuscular fat content. Ninety-six pigs were used in the test, thirty-two in each of the three genetic lines. Swine feeding was initiated in September 2000. At about 80 pounds body weight the 32 pigs of each of the three genetic lines were randomly allotted to individual pens. The pigs were fed corn/soy based diets formulated to provide adequate levels of all nutrients. In addition, one of four dietary treatments was assigned to each pen: control, 1,000 ppm NAC, 500 ppm LA and 150 ppm MT.
(§2) The pigs were harvested in November and December 2000 when they had reached an average weight of 260 pounds. Meat tissue quality evaluations occurred on Jan. 28, 2001. At the packing plant individual hot carcass weight, back fat depth and loin depth were measured and lean percent was calculated. Loin pH and loin color value (Minolta L*) were recorded 24 hours post mortem.
Minolta L* color value was measured objectively using a Minolta colorimeter. The Minolta L* value is an indication of the lightness of the pork loin. A lower value indicates a darker color and thus, higher quality.

Assay [4] relates to swine. The assay can be described thus: 2000-2001 swine feed test: 24 hour raw pork loin pH. In kind it is in vivo. The note with it: for 24 hour raw pork loin pH, Increase vs. Control: overall ave.
From the text: as §1, §2

Turning to alpha-tocotrienol, in assay [1], the antioxidant activity entry was “greater antioxidant activity than ATA”.

In the case of `CC(C)=CCC/C(C)=C/CC/C(C)=C/CC[C@]1(C)CCc2cc(O)c(C)c(C)c2O1` [gamma-tocotrienol], the antioxidant activity result in assay [1] is listed as “greater antioxidant activity than ATA”.

As for `O=C(O)CCCCC1CCSS1` (stereo not drawn) [LA, alpha-lipoic acid], the Color Score entry in the assay on swine [2] is “decrease”. Besides, the “Loin pH” value in the assay on swine [2] is “increase”. Moreover, the “raw pork loin color, Minolta L* value” is reported as 52.0 with swine [3] (Line 1 ave., 500 ppm in diet); 50.9 with swine [3] (Line 2 ave., 500 ppm in diet); 49.1 with swine [3] (Line 3 ave., 500 ppm in diet); 50.7 in the assay on swine [3] (overall ave., 500 ppm in diet). Also, the “24 hour raw pork loin pH” value with swine [4] (Line 1 ave., 500 ppm in diet) is 6.00^b; with swine [4] (Line 2 ave., 500 ppm in diet) it was 5.90^b; with swine [4] (Line 3 ave., 500 ppm in diet), 5.99^c; in the assay with swine [4] (Overall ave. of three genetic lines, 500 ppm in diet), 5.99^b. Also, the “24 hour raw pork loin pH, Increase vs. Control” value with swine [4] (500 ppm in diet) is 0.20.

In the case of `CC(=O)N[C@@H](CS)C(=O)O` [NAC, N-acetylcysteine], the “raw pork loin color, Minolta L* value” in the assay on swine [3] (Line 1 ave., 1,000 ppm in diet) was determined as 49.7; with swine [3] (Line 2 ave., 1,000 ppm in diet), 53.0; in the assay on swine [3] (Line 3 ave., 1,000 ppm in diet) it was 49.0; in the assay with swine [3] (overall ave., 1,000 ppm in diet) it was 50.5. Besides, the “24 hour raw pork loin pH” value in the assay with swine [4] (Line 1 ave., 1,000 ppm in diet) was 6.07^b; in the assay on swine [4] (Line 2 ave., 1,000 ppm in diet) it was 5.78^a; in the assay on swine [4] (Line 3 ave., 1,000 ppm in diet), 5.93^c; with swine [4] (Overall ave. of three genetic lines, 1,000 ppm in diet), 5.93^b. For the same compound, the “24 hour raw pork loin pH, Increase vs. Control” value in the assay on swine [4] (1,000 ppm in diet) came to 0.16.
